# Measured values taken from patent US5525626A (priority 1989, dated 1996).
# Experiments:
# Format in all cases: cell-based
# G-361 melanoma cells = experiment: 3H-thymidine assay; conditions: Homo sapiens, G-361; for activity at 1 µM: 1 μM/ml; for activity at 2 µM: 2 μM/ml; for activity at 4 µM: 4 μM/ml; for activity at 8 µM: 8 μM/ml; for activity at 25 µM: 25 μM/ml; for activity at 50 µM: 50 μM/ml; for activity at 100 µM: 100 μM/ml; for activity at 250 µM: 250 μM/ml; for activity at 500 µM: 500 μM/ml; for IC50: Table 4, *: maximum usable dosage, no 50% inhibition, read-out: active substance concentration at which 3H-thymidine insertion was 50% inhibited
# [1] = test system: GV-1 prostate carcinoma cells; experiment: 3H-thymidine assay; conditions: for activity at 1 µM: 1 μM/ml; for activity at 1 µM / activity at 2 µM / activity at 4 µM / activity at 8 µM / activity at 16 µM / activity at 25 µM / activity at 50 µM / activity at 100 µM / activity at 250 µM / activity at 500 µM: read-out: 3H-thymidine tracer (%) of control; for activity at 2 µM: 2 μM/ml; for activity at 4 µM: 4 μM/ml; for activity at 8 µM: 8 μM/ml; for activity at 16 µM: 16 μM/ml; for activity at 25 µM: 25 μM/ml; for activity at 50 µM: 50 μM/ml; for activity at 100 µM: 100 μM/ml; for activity at 250 µM: 250 μM/ml; for activity at 500 µM: 500 μM/ml; for IC50: Table 4, read-out: active substance concentration at which 3H-thymidine insertion was 50% inhibited
# [2] = test system: brain-tumor cells (glioblastoma cells); experiment: growth inhibition of brain-tumor cells; conditions: Tables 1 to 3
# Daudi leukemic cells = experiment: 3H-thymidine assay; conditions: Homo sapiens; for activity at 1 µM: 1 μM/ml; for activity at 1 µM / activity at 2 µM / activity at 4 µM / activity at 8 µM / activity at 16 µM / activity at 25 µM / activity at 50 µM / activity at 100 µM / activity at 250 µM / activity at 500 µM: read-out: 3H-thymidine tracer (%) of control; for activity at 2 µM: 2 μM/ml; for activity at 4 µM: 4 μM/ml; for activity at 8 µM: 8 μM/ml; for activity at 16 µM: 16 μM/ml; for activity at 25 µM: 25 μM/ml; for activity at 50 µM: 50 μM/ml; for activity at 100 µM: 100 μM/ml; for activity at 250 µM: 250 μM/ml; for activity at 500 µM: 500 μM/ml; for IC50: Table 4, read-out: active substance concentration at which 3H-thymidine insertion was 50% inhibited
# [3] = test system: Tp 483 MG glioblastoma cells; experiment: 3H-thymidine assay; conditions: for activity at 1 µM: 1 μM/ml; for activity at 1 µM / activity at 2 µM / activity at 4 µM / activity at 8 µM / activity at 16 µM / activity at 25 µM / activity at 50 µM / activity at 100 µM / activity at 250 µM / activity at 500 µM: read-out: 3H-thymidine insertion (%) of control; for activity at 2 µM: 2 μM/ml; for activity at 4 µM: 4 μM/ml; for activity at 8 µM: 8 μM/ml; for activity at 16 µM: 16 μM/ml; for activity at 25 µM: 25 μM/ml; for activity at 50 µM: 50 μM/ml; for activity at 100 µM: 100 μM/ml; for activity at 250 µM: 250 μM/ml; for activity at 500 µM: 500 μM/ml; for IC50: Table 4, read-out: active substance concentration at which 3H-thymidine insertion was 50% inhibited
# A-375 melanoma cells = experiment: 3H-thymidine assay; conditions: Homo sapiens, A-375; for activity at 1 µM: 1 μM/ml; for activity at 2 µM: 2 μM/ml; for activity at 4 µM: 4 μM/ml; for activity at 8 µM: 8 μM/ml; for activity at 25 µM: 25 μM/ml; for activity at 50 µM: 50 μM/ml; for activity at 100 µM: 100 μM/ml; for activity at 250 µM: 250 μM/ml; for activity at 500 µM: 500 μM/ml; for IC50: Table 4, *: maximum usable dosage, no 50% inhibition, read-out: active substance concentration at which 3H-thymidine insertion was 50% inhibited
# [4] = read-out: 3H-thymidine tracer (%) of control
# [5] = 16 μM/ml, read-out: 3H-thymidine tracer (%) of control
compound,measurement,setting,value
"O=c1ccc2cc(O)c(O)cc2o1 [Esculetin, 6,7-hydroxy-1,2-benzopyrone]",activity at 1 µM,G-361 melanoma cells; [4],97%
same,activity at 2 µM,G-361 melanoma cells; [4],93%
same,activity at 4 µM,G-361 melanoma cells; [4],90%
same,activity at 8 µM,G-361 melanoma cells; [4],88%
same,activity at 16 µM,G-361 melanoma cells; [5],72%
same,activity at 25 µM,G-361 melanoma cells; [4],68%
same,activity at 50 µM,G-361 melanoma cells; [4],60%
same,activity at 100 µM,G-361 melanoma cells; [4],58%
same,activity at 250 µM,G-361 melanoma cells; [4],52%
same,activity at 500 µM,G-361 melanoma cells; [4],49%
same,IC50,G-361 melanoma cells,500 µM
same,activity at 1 µM,[1],97%
same,activity at 2 µM,[1],93%
same,activity at 4 µM,[1],88%
same,activity at 8 µM,[1],84%
same,activity at 16 µM,[1],78%
same,activity at 25 µM,[1],75%
same,activity at 50 µM,[1],63%
same,activity at 100 µM,[1],60%
same,activity at 250 µM,[1],58%
same,activity at 500 µM,[1],50%
same,IC50,[1],500 µM
same,growth-inhibiting effect on brain-tumor cells,[2],strong growth-inhibiting effect on brain-tumor cells
same,activity at 1 µM,Daudi leukemic cells,94%
same,activity at 2 µM,Daudi leukemic cells,96%
same,activity at 4 µM,Daudi leukemic cells,83%
same,activity at 8 µM,Daudi leukemic cells,75%
same,activity at 16 µM,Daudi leukemic cells,69%
same,activity at 25 µM,Daudi leukemic cells,63%
same,activity at 50 µM,Daudi leukemic cells,61%
same,activity at 100 µM,Daudi leukemic cells,57%
same,activity at 250 µM,Daudi leukemic cells,54%
same,activity at 500 µM,Daudi leukemic cells,39%
same,IC50,Daudi leukemic cells,250 µM
same,activity at 1 µM,[3],98%
same,activity at 2 µM,[3],94%
same,activity at 4 µM,[3],85%
same,activity at 8 µM,[3],77%
same,activity at 16 µM,[3],73%
same,activity at 25 µM,[3],69%
same,activity at 50 µM,[3],62%
same,activity at 100 µM,[3],55%
same,activity at 250 µM,[3],39%
same,activity at 500 µM,[3],28%
same,IC50,[3],150 µM
same,activity at 1 µM,A-375 melanoma cells; [4],98%
same,activity at 2 µM,A-375 melanoma cells; [4],91%
same,activity at 4 µM,A-375 melanoma cells; [4],89%
same,activity at 8 µM,A-375 melanoma cells; [4],84%
same,activity at 16 µM,A-375 melanoma cells; [5],75%
same,activity at 25 µM,A-375 melanoma cells; [4],70%
same,activity at 50 µM,A-375 melanoma cells; [4],65%
same,activity at 100 µM,A-375 melanoma cells; [4],63%
same,activity at 250 µM,A-375 melanoma cells; [4],59%
same,activity at 500 µM,A-375 melanoma cells; [4],55%
same,IC50,A-375 melanoma cells,> 500 µM
"COc1cc2ccc(=O)oc2cc1O [Scopoletin, 6-methoxy-7-hydroxy-1,2-benzopyrone]",activity at 1 µM,G-361 melanoma cells; [4],100%
same,activity at 2 µM,G-361 melanoma cells; [4],98%
same,activity at 4 µM,G-361 melanoma cells; [4],96%
same,activity at 8 µM,G-361 melanoma cells; [4],88%
same,activity at 25 µM,G-361 melanoma cells; [4],85%
same,activity at 50 µM,G-361 melanoma cells; [4],85%
same,activity at 100 µM,G-361 melanoma cells; [4],76%
same,activity at 250 µM,G-361 melanoma cells; [4],71%
same,activity at 500 µM,G-361 melanoma cells; [4],67%
same,IC50,G-361 melanoma cells,> 500 µM
same,activity at 1 µM,[1],100%
same,activity at 2 µM,[1],98%
same,activity at 4 µM,[1],91%
same,activity at 8 µM,[1],88%
same,activity at 16 µM,[1],82%
same,activity at 25 µM,[1],78%
same,activity at 50 µM,[1],71%
same,activity at 100 µM,[1],63%
same,activity at 250 µM,[1],61%
same,activity at 500 µM,[1],51%
same,IC50,[1],500 µM
same,activity at 1 µM,Daudi leukemic cells,96%
same,activity at 2 µM,Daudi leukemic cells,94%
same,activity at 4 µM,Daudi leukemic cells,80%
same,activity at 8 µM,Daudi leukemic cells,79%
same,activity at 16 µM,Daudi leukemic cells,71%
same,activity at 25 µM,Daudi leukemic cells,64%
same,activity at 50 µM,Daudi leukemic cells,58%
same,activity at 100 µM,Daudi leukemic cells,53%
same,activity at 250 µM,Daudi leukemic cells,49%
same,activity at 500 µM,Daudi leukemic cells,41%
same,IC50,Daudi leukemic cells,250 µM
same,activity at 1 µM,[3],100%
same,activity at 2 µM,[3],95%
same,activity at 4 µM,[3],89%
same,activity at 8 µM,[3],86%
same,activity at 16 µM,[3],78%
same,activity at 25 µM,[3],72%
same,activity at 50 µM,[3],67%
same,activity at 100 µM,[3],63%
same,activity at 250 µM,[3],54%
same,activity at 500 µM,[3],50%
same,IC50,[3],500 µM
same,activity at 1 µM,A-375 melanoma cells; [4],99%
same,activity at 2 µM,A-375 melanoma cells; [4],96%
same,activity at 4 µM,A-375 melanoma cells; [4],90%
same,activity at 8 µM,A-375 melanoma cells; [4],89%
same,activity at 25 µM,A-375 melanoma cells; [4],87%
same,activity at 50 µM,A-375 melanoma cells; [4],78%
same,activity at 100 µM,A-375 melanoma cells; [4],75%
same,activity at 250 µM,A-375 melanoma cells; [4],75%
same,activity at 500 µM,A-375 melanoma cells; [4],70%
same,IC50,A-375 melanoma cells,> 500 µM
